{"source": "patent US7691567B2", "about": "“Methods and compositions relating to fortilin, an anti-apoptotic molecule, and modulators of fortilin” (Board of Regents, the University of Texas System, priority 2000, dated 2010)", "key": {"[1]": {"test_system": "caspase 3-like activity", "assay": "Assay of caspase 3-like activity in U2OS stable transfectants (Z-DEVD-AFC)", "format": "cell-based", "experimental": "Assay of caspase 3-like activity. Approximately 2×10^6 U2OS stable transfectants, either expressing Fortilin (U2OS.F) or harboring empty expression vector (U2OS.E), both of which have been characterized above, were challenged either with dimethyl sulfoxide (DMSO) (vehicle) or with etoposide at a final concentration of 10 μg/mL for 48 hours. Caspase 3-like activity was then determined as previously described (Mannick et al., 1999). In brief, cytosolic proteins were extracted in hypotonic cell lysis buffer (25 mM HEPES, pH 7.5, 5 mM MgCl2, 5 mM EDTA, 5 mM dithiothreitol, 0.05% phenylmethylsulfonyl fluoride [PMSF]; all from Sigma) by three cycles of freezing and thawing. The protein concentration of samples was determined by using a BioRad Bradford protein assay kit (BioRad). Ten micrograms of cytosolic extracts were added to caspase assay buffer (312.5 mM HEPES, pH 7.5, 31.25% sucrose, 0.3125% CHAPS) with Z-DEVD-AFC as substrates (CalBiochem, San Diego, Calif.). Release of 7-amido-4-(trifluoromethyl)coumarin (AFC) was quantified, after 2 hours of incubation at 37° C. (or, in the case of time course experiment, every 10 minutes), using a Fluoroskan system (Thermo-Labsystems, Helsinki, Finland) set to an excitation value of 355 nm and emission value of 525 nm. The results were expressed as relative fluorescence unit (R.F.U.) per microgram of protein."}, "[2]": {"biological_target": "T1, MCL1 (Homo sapiens, UniProt Q07820)", "T1 sequence (Q07820 whole entry)": "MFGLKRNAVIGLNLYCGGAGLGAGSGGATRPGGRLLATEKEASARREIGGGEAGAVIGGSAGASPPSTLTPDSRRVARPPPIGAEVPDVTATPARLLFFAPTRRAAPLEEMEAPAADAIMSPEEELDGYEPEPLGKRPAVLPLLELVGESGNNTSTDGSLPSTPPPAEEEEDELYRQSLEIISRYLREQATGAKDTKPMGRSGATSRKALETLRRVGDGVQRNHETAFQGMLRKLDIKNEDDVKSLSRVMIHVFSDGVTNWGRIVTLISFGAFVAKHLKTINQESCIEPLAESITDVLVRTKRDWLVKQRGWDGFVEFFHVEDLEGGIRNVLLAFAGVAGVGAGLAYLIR", "assay": "GST-Fortilin in vitro pull-down of labeled MCL1", "format": "binding", "conditions": "35S-labeled MCL1", "experimental": "(§1) Studies were initiated to determine whether p53 and Fortilin specifically interact. Either recombinant GST-Fortilin or GST only were incubated at 4° C. for 90 minutes with in vitro translated, [^35S-Met]-labeled p53, MCL1 or Bcl-xL, in Binding Buffer (50 mM HEPES, pH7.5, 70 mM KCl, 0.5 mM ATP, 5 mM MgSO4, 1 mM DTT, 0.001% NP40, 50 μM MG132, 2 μg/mL BSA, Aporotinin, PMSF and protease inhibitor cocktail (Sigma Co., St. Louis, Mo.)). The GST or GST-Fortilin was then pulled down with Glutathione Sepharose 4B beads (Amersham-Pharmacia Biotechnologies). Formed complexes were extensively washed and eluted into SDS loading buffer. The eluted proteins were subjected to SDS-PAGE in duplicate. The first SDS gel was stained with Commassie Blue to confirm the successful immunoprecipitation of GST and GST-Fortilin (IP). […] Thus, there is a specific interaction present between Fortilin and p53, between Fortilin and MCL1."}, "[3]": {"biological_target": "T2, Bcl-xL (Homo sapiens, UniProt Q07817)", "T2 sequence (Q07817 whole entry, species assumed)": "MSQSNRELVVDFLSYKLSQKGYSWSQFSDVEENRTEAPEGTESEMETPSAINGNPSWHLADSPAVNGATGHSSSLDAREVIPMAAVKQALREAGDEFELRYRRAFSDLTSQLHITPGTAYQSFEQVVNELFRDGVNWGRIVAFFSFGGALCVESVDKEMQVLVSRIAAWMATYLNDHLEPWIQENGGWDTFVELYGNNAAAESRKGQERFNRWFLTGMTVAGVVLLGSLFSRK", "assay": "GST-Fortilin in vitro pull-down of labeled Bcl-xL", "format": "binding", "conditions": "35S-labeled Bcl-xL", "experimental": "as §1"}, "[4]": {"biological_target": "T1, MCL1", "assay": "In vitro pull-down assay of HA-tagged Fortilin or mutants with MCL1", "format": "binding", "conditions": "in vitro translated 35S-labeled proteins, anti-HA pull-down"}, "[5]": {"biological_target": "T2, Bcl-xL", "assay": "In vitro pull-down assay of Fortilin-HA with Bcl-xL", "format": "binding", "conditions": "in vitro translated proteins, anti-HA pull-down"}, "[6]": {"biological_target": "T3, Bak (Homo sapiens, UniProt Q16611)", "T3 sequence (Q16611 1-211)": "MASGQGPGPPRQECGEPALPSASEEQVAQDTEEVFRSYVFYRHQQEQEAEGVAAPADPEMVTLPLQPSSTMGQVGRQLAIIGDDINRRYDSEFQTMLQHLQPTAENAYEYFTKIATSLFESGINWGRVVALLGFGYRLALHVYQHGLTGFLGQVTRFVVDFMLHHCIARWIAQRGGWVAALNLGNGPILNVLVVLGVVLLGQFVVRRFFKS", "assay": "In vitro pull-down assay of Fortilin-HA with Bak", "format": "binding", "conditions": "in vitro translated proteins, anti-HA pull-down"}, "[7]": {"test_system": "H1299 cells", "assay": "p53-mediated apoptosis in transfected H1299 cells (apoptotic index)", "format": "cell-based", "conditions": "overexpression, thirty hours after transfection", "experimental": "Because wild-type p53 can induce apoptosis, the ability of Fortilin to prevent or inhibit p53-mediated apoptosis was examined. H1299 cells were transfected with indicated combinations of mammalian expression constructs. Thirty hours after the transfection, cells were fixed and stained for beta-galactosidase activities. Cells that were round in shape with significant membrane irregularity were counted as apoptotic (FIG. 5). Apoptotic index was calculated as (Blue cells with apoptotic plasma membrane morphology)/(Total blue cells counted)×100."}, "[8]": {"test_system": "MCL1", "assay": "Western blot of intracellular MCL1 concentration in U2OS cells overexpressing Fortilin", "format": "cell-based", "conditions": "U2OS stable transfectants, compared with control or wild type transfectants"}, "[9]": {"biological_target": "Bax (Homo sapiens, UniProt Q07812)", "sequence (Q07812 whole entry, species assumed)": "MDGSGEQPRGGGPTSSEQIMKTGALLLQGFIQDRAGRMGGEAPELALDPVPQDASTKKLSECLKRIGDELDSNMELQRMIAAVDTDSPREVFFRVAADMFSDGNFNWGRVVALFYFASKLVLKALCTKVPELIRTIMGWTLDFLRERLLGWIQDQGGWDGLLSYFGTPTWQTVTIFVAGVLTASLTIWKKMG", "assay": "In vitro pull-down assay of Fortilin-HA with Bax", "format": "binding", "conditions": "in vitro translated proteins, anti-HA pull-down"}, "[10]": {"test_system": "HeLa cells", "assay": "Cell death assay: etoposide-induced apoptosis in transfected HeLa cells (apoptotic index)", "format": "cell-based", "experimental": "Cell death assay: The experiment was performed in duplicate and repeated at least three times. A total of […] HeLa cells were seeded in each well of a 4-well Lab-Teck™ chamber slides (Nalge Nunc International), and transfected with pFLAG containing Fortilin or other control cDNAs, using FuGENE6 (Roche). Twenty-four hours after the transfection, the cells were challenged by 5 μg/mL etoposide for 12 hours. Cells were stained for the FLAG-epitope using anti-FLAG antibody (M2, Sigma Co) and anti-mouse IgG conjugated to Rhodamine Red X (Jackson ImmunoResearch Laboratories). The nuclei were stained with DAPI (4,6-Diamidino-2-phenylindole, Sigma Co). Cells were then examined under a Zeiss AXIOSKOP fluorescent microscope (Carl Zeiss Ltd.), using appropriate filter sets. Cells that emitted red fluorescence were evaluated for their nuclear morphology. Condensed or fragmented nuclei were counted as apoptotic. An apoptotic index was then calculated as the number of red cells with apoptotic nuclear morphology divided by the number of total red cells counted and multiplied by 100.\nStatistical analysis: For the analysis of statistical significance of apoptotic indices among cells transfected with different plasmids, Dunnett's T tests were performed. In all cases, the confidence intervals were 0.95 with the alpha value of 0.05. For the statistical evaluation of the significant linear trend between the amount of plasmids used for the transfection and apoptotic indices, ANOVA (Analysis of Variance) regression analysis was employed. […] For the analysis of statistical significance of possible correlation between the degree of malignancy and the indices of Fortilin immunoreactivity, Dunnett's multiple range tests were performed."}, "[11]": {"biological_target": "p53 (Homo sapiens, UniProt P04637)", "sequence (P04637 whole entry, species assumed)": "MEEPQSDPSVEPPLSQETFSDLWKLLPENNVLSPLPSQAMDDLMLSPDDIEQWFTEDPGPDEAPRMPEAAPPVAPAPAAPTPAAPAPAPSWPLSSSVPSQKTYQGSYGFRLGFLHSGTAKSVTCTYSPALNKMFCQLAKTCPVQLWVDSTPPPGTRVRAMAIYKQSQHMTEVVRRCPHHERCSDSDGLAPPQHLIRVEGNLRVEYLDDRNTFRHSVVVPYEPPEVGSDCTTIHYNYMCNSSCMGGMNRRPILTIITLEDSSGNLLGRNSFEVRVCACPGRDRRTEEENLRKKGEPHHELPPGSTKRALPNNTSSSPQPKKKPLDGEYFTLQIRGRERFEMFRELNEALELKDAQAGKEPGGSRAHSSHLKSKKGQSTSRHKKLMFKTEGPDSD", "assay": "GST-Fortilin in vitro pull-down of labeled p53", "format": "binding", "conditions": "35S-labeled p53, 4° C. 90 minutes", "experimental": "as §1"}}, "note": "Entries after “also recorded” stand apart in the source; their conditions may differ."}
{"substance": "Fortilin: 172 amino acid anti-apoptotic polypeptide (SEQ ID NO:2), overexpressed from expression constructs or used as recombinant/in vitro translated protein", "values": [{"measurement": "inhibition of caspase-3-like activity, kinetics", "setting": "[1]; U2OS cells, 10 μg/mL etoposide, signals every 10 minutes for 2 hours", "value": "significantly inhibited the caspase-3-like activity in U2OS cells at all time points"}, {"measurement": "inhibition of caspase-3-like activity upon etoposide challenge", "setting": "[1]; U2OS cells, etoposide 10 μg/mL 48 hours, vs empty vector", "value": "significantly inhibited the caspase-3-like activity in U2OS cells"}, {"measurement": "caspase-3-like activity", "setting": "[1]; U2OS stably expressing Fortilin (U2OS.F), absence of etoposide challenge (DMSO)", "value": "283±22.6", "unit": "R.F.U./μg protein"}, {"measurement": "caspase-3-like activity index", "setting": "[1]; U2OS stably expressing Fortilin (U2OS.F), etoposide 10 μg/mL 48 hours", "value": "713.9±62.6", "unit": "R.F.U./μg protein"}, {"measurement": "co-precipitation of MCL1 with Fortilin in vitro", "setting": "[2]", "value": "co-precipitated with Fortilin"}, {"measurement": "co-immunoprecipitation of Bcl-xL with Fortilin in vitro", "setting": "[3]", "value": "not Bcl-xL"}, {"measurement": "interaction / co-immunoprecipitation with MCL1 in vitro", "setting": "[4]", "value": "co-immunoprecipitated with Fortilin in vitro"}, {"measurement": "interaction / co-immunoprecipitation with MCL1 in vitro", "setting": "[4]; listed as full-length Fortilin", "value": "co-immunoprecipitated MCL1 in vitro; also recorded: interacted"}, {"measurement": "co-immunoprecipitation of Bcl-xL with Fortilin in vitro", "setting": "[5]", "value": "not"}, {"measurement": "co-immunoprecipitation of Bak with Fortilin in vitro", "setting": "[6]", "value": "not"}, {"measurement": "suppression of p53 induced apoptosis (apoptotic index)", "setting": "[7]", "value": "statistically significant (p<0.001) suppression of p53-induced apoptosis; also recorded: statistically significant (p<0.001) suppression of p53 induced apoptosis"}, {"measurement": "expression levels of MCL1 (MCL1 Expression Index)", "setting": "[8]", "value": "similar"}, {"measurement": "co-immunoprecipitation of Bax with Fortilin in vitro", "setting": "[9]", "value": "not"}, {"measurement": "prevention of Etoposide-induced apoptosis (apoptotic index)", "setting": "[10]; HeLa cells overexpressing FLAG-tagged protein, 5 μg/mL etoposide 12 hours", "value": "prevented HeLa cells from undergoing Etoposide-induced apoptosis in a statistically significant fashion; also recorded: as strong an anti-apoptotic effect as that of Bcl-xL and MCL1"}, {"measurement": "apoptotic index versus amount of Fortilin expressed", "setting": "[10]; HeLa cells, various amounts of pFLAG-Fortilin, etoposide challenge", "value": "more prominent anti-apoptotic effects"}, {"measurement": "co-immunoprecipitation of p53 with Fortilin in vitro", "setting": "[11]", "value": "co-immunoprecipitated with Fortilin in vitro"}]}
